According to publication PMC9307089 (Journal of medicinal chemistry, 2021):
Numbered stars: 1 amine (or outer) side, 2 acyl side, 3 side chain; on linkers, the order of the positions; unused ones are H or OH. Bridge positions count the residues as written; N and C are the ends. Square brackets hold non-standard residues; d marks the D form. Peptide text beside a SMILES is read from it. X1 = N=C(N)NCCC[C@H](N[*:1])C(=O)c1nc2ccc(C(=O)[*:2])cc2s1

What was measured:
[1] = target: T1, recombinant serine protease domain of HGFA (Homo sapiens, UniProt Q04756); experiment: Fluorescent kinetic enzyme inhibition assay, HGFA; type: biochemical
T1 sequence (Q04756 408-646 limits assumed): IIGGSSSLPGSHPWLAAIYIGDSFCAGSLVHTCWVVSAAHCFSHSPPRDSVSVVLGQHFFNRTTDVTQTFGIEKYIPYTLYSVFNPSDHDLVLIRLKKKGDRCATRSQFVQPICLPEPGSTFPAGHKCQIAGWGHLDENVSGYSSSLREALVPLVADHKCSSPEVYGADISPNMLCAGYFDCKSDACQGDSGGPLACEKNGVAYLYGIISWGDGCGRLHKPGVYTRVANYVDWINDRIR

matriptase = target: T2, matriptase (Homo sapiens, UniProt Q9Y5Y6); experiment: Fluorescent kinetic enzyme inhibition assay, matriptase; type: biochemical
T2 sequence (Q9Y5Y6 615-855 limits assumed): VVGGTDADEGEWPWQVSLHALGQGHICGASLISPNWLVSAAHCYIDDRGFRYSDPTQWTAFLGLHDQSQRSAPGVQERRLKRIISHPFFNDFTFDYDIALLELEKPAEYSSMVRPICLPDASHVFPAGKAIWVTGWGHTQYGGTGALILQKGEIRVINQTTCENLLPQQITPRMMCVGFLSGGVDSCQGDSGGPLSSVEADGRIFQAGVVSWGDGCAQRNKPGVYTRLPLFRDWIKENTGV

Factor Xa = Factor Xa (Homo sapiens, UniProt P00742); experiment: Chromogenic kinetic enzyme assay, Factor Xa; type: biochemical
thrombin = thrombin (Homo sapiens, UniProt P00734); experiment: Chromogenic kinetic enzyme assay, thrombin; type: biochemical
[2] = In vitro stability in mouse plasma; type: in vitro ADME
[3] = In vitro stability in human plasma; type: in vitro ADME

Factor Xa, sequence (P00742 235-488 limits assumed): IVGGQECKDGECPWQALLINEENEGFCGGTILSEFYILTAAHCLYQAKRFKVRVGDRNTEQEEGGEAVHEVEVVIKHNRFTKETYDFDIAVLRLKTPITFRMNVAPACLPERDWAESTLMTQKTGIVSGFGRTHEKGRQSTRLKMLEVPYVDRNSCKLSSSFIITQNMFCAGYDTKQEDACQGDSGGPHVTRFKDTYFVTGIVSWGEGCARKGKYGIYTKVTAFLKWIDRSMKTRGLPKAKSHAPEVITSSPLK
Factor Xa, sequence (P00742 41-179 partner limits assumed): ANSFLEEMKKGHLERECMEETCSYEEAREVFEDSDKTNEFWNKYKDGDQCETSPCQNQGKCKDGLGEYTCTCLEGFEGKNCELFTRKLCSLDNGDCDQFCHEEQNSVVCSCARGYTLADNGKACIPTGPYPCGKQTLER

Question: Which IC50 [1] does the source give for `CC(=O)N[C@H]1CC(=O)NCCCC[C@@H](C(=O)N[C@@H](CCCNC(=N)N)C(=O)c2nc3ccc(C(=O)N[C@H](C(N)=O)C(C)C)cc3s2)NC(=O)[C@H](CC(C)C)NC1=O` [Compound 20, Ac-cyclo(DLK)-R- ketobenzothiazole-V-amide] (Ac-DLK[X1]V-NH2; lactam 1-3) here?
Answer: 5380 nM

Question: And the IC50 (matriptase)?
Answer: 11 nM

Question: And the IC50 (Factor Xa)?
Answer: 118 nM

Question: And the IC50 (thrombin)?
Answer: 34 nM

Question: What about the half-life [2] of the same compound?
Answer: > 4.82 h

Question: And the half-life [3]?
Answer: > 4.82 h
